Reference: article PMC11748363, “Antimicrobial and Antiproliferative Properties of 2‐Phenyl‐N‐(Pyridin‐2‐yl)acetamides” (Chemical Biology & Drug Design, 2025)
Values after ≈ are worked out from the molar mass of the structure shown. Like-named read-outs stand apart in the source and are kept apart here.

Tests used:
[1] = tested on: Aspergillus fumigatus ATCC 204305; experiment: Antifungal microdilution broth MIC, AF
[2] = tested on: Mycolicibacterium smegmatis DSM 43465; experiment: Antimycobacterial microdilution broth MIC (resazurin), M. smegmatis; format: cell-based; details: DSM43465, read-out: MIC M. smegmatis
[3] = tested on: Pseudomonas aeruginosa CCM 3955, ATCC 27853; experiment: Antibacterial microdilution broth MIC, PA; format: cell-based
[4] = tested on: Candida tropicalis CCM 8264, ATCC 750; experiment: Antifungal microdilution broth MIC, CT
[5] = tested on: Acinetobacter baumannii DSM 30007, ATCC 19606; experiment: Antibacterial microdilution broth MIC, ACI; format: cell-based
[6] = tested on: Enterococcus faecalis CCM 4224, ATCC 29212; experiment: Antibacterial microdilution broth MIC, EF; format: cell-based
HepG2 cell line = experiment: Cytotoxicity CellTiter 96, HepG2; format: cell-based, human; details: Homo sapiens, HepG2, 24 h, 24 h incubation; ^c compound precipitated in the testing medium; ^d over the limit of tested concentrations
[7] = tested on: Staphylococcus epidermidis CCM 4418, ATCC 12228; experiment: Antibacterial microdilution broth MIC, SE; format: cell-based
[8] = tested on: Candida albicans CCM 8320, ATCC 24433; experiment: Antifungal microdilution broth MIC, CA
[9] = tested on: Staphylococcus aureus subsp. aureus CCM 4750, ATCC 43300 (MRSA); experiment: Antibacterial microdilution broth MIC, MRSA; format: cell-based; details: Staphylococcus aureus
[10] = tested on: Trichophyton interdigitale CCM 8377, ATCC 9533; experiment: Antifungal microdilution broth MIC, TI; details: Trichophyton interdigitale
[11] = tested on: Escherichia coli CCM 3954, ATCC 25922; experiment: Antibacterial microdilution broth MIC, EC; format: cell-based
[12] = tested on: Candida parapsilosis CCM 8260, ATCC 22019; experiment: Antifungal microdilution broth MIC, CP; details: Lodderomyces parapsilosis
[13] = tested on: Klebsiella pneumoniae CCM 4415, ATCC 10031; experiment: Antibacterial microdilution broth MIC, KP
[14] = tested on: Mycobacterium tuberculosis H37Ra; experiment: Antimycobacterial microdilution broth MIC (resazurin), Mtb H37Ra; format: cell-based; details: for MIC: Mycobacterium tuberculosis, H37RA, read-out: MIC Mtb H37Ra
[15] = tested on: Lichtheimia corymbifera CCM 8077; experiment: Antifungal microdilution broth MIC, LC
[16] = tested on: Staphylococcus aureus CCM 4223, ATCC 29213; experiment: Antibacterial microdilution broth MIC, SA; format: cell-based; details: Staphylococcus aureus
[17] = tested on: Aspergillus flavus CCM 8363; experiment: Antifungal microdilution broth MIC, AFla
[18] = tested on: Candida krusei CCM 8271, ATCC 6258; experiment: Antifungal microdilution broth MIC, CK; details: Pichia kudriavzevii
[19] = tested on: Mycolicibacterium aurum DSM 43999; experiment: Antimycobacterial microdilution broth MIC (resazurin), M. aurum; format: cell-based; details: DSM43999, read-out: MIC M. aurum
[20] = ATCC204305, 24 h, read-out: MIC AF 24h
[21] = ATCC204305, 48 h, read-out: MIC AF 48h
[22] = CCM8077, 24 h, read-out: MIC LC 24h
[23] = CCM8077, 48 h, read-out: MIC LC 48h
[24] = CCM8363, 24 h, read-out: MIC AFla 24h
[25] = CCM8363, 48 h, read-out: MIC AFla 48h

`O=C(Cc1cccc(Cl)c1)Nc1ccccn1` [Compound 16, 2-(3-chlorophenyl)-N-(pyridin-2-yl)acetamide] gave an MIC [1, 20] of over 500 µM, an MIC [1, 21] of over 500 µM and an MIC [2] of over 500 µg/mL. For the same molecule, the MIC ([3]; 24 h, read-out: MIC PA 24h) was over 500 µM, the MIC ([3]; 48 h, read-out: MIC PA 48h) was over 500 µM and the MIC ([4]; 24 h, read-out: MIC CT 24h) was over 500 µM. For the same molecule, the MIC ([4]; 48 h, read-out: MIC CT 48h) was over 500 µM, the MIC ([5]; 24 h, read-out: MIC ACI 24h) was over 500 µM and the MIC ([5]; 48 h, read-out: MIC ACI 48h) was over 500 µM. It also gave an MIC ([6]; 24 h, read-out: MIC EF 24h) of over 500 µM, an MIC ([6]; 48 h, read-out: MIC EF 48h) of over 500 µM and an IC50 (HepG2 cell line) of over 250 µM. For the same molecule, the MIC ([7]; 24 h, read-out: MIC SE 24h) was 125 µM (≈ 30.8 µg/mL), the MIC ([7]; 48 h, read-out: MIC SE 48h) was 250 µM (≈ 61.7 µg/mL) and the MIC ([8]; 24 h, read-out: MIC CA 24h) was over 500 µM. It also gave an MIC ([8]; 48 h, read-out: MIC CA 48h) of over 500 µM, an MIC ([9]; 24 h, read-out: MIC MRSA 24h) of over 500 µM and an MIC ([9]; 48 h, read-out: MIC MRSA 48h) of over 500 µM. The MIC ([10]; 72 h, read-out: MIC TI 72h) was 500 µM (≈ 123 µg/mL), the MIC ([10]; 120 h, read-out: MIC TI 120h) was 500 µM (≈ 123 µg/mL) and the MIC ([11]; 24 h, read-out: MIC EC 24h) was over 500 µM. It also gave an MIC ([11]; 48 h, read-out: MIC EC 48h) of over 500 µM, an MIC ([12]; 24 h, read-out: MIC CP 24h) of over 500 µM and an MIC ([12]; 48 h, read-out: MIC CP 48h) of over 500 µM. For the same molecule, the “MIC KP 24h” value [13] was over 500 µM, the “MIC KP 48h” value [13] was over 500 µM and the MIC ([14]; Calculated from MIC (μg/mL)) was 253 µM. The MIC [14] was 62.5 µg/mL, the MIC [15, 22] was over 500 µM and the MIC [15, 23] was over 500 µM. The MIC ([16]; 24 h, read-out: MIC SA 24h) was 500 µM (≈ 123 µg/mL), the MIC ([16]; 48 h, read-out: MIC SA 48h) was 500 µM (≈ 123 µg/mL) and the MIC [17, 24] was over 500 µM. The MIC [17, 25] was over 500 µM, the MIC ([18]; 24 h, read-out: MIC CK 24h) was over 500 µM and the MIC ([18]; 48 h, read-out: MIC CK 48h) was over 500 µM. The MIC [19] was 250 µg/mL (≈ 1010 µM).

`COc1cccc(CC(=O)Nc2cccc(Cl)n2)c1` [Compound 9, 2-(3-methoxyphenyl)-N-(6-chloropyridin-2-yl)acetamide] gave an MIC [1, 20] of 500 µM (≈ 138 µg/mL), an MIC [1, 21] of over 500 µM and an MIC [2] of 125 µg/mL (≈ 452 µM). It also gave an MIC ([3]; 24 h, read-out: MIC PA 24h) of over 500 µM, an MIC ([3]; 48 h, read-out: MIC PA 48h) of over 500 µM and an MIC ([4]; 24 h, read-out: MIC CT 24h) of 500 µM (≈ 138 µg/mL). The MIC ([4]; 48 h, read-out: MIC CT 48h) was 500 µM (≈ 138 µg/mL), the MIC ([5]; 24 h, read-out: MIC ACI 24h) was over 500 µM and the MIC ([5]; 48 h, read-out: MIC ACI 48h) was over 500 µM. For the same molecule, the MIC ([6]; 24 h, read-out: MIC EF 24h) was over 500 µM, the MIC ([6]; 48 h, read-out: MIC EF 48h) was over 500 µM and the IC50 (HepG2 cell line) was 638 µM. It also gave an MIC ([7]; 24 h, read-out: MIC SE 24h) of over 500 µM, an MIC ([7]; 48 h, read-out: MIC SE 48h) of over 500 µM and an MIC ([8]; 24 h, read-out: MIC CA 24h) of 500 µM (≈ 138 µg/mL). For the same molecule, the MIC ([8]; 48 h, read-out: MIC CA 48h) was 500 µM (≈ 138 µg/mL), the MIC ([9]; 24 h, read-out: MIC MRSA 24h) was over 500 µM and the MIC ([9]; 48 h, read-out: MIC MRSA 48h) was over 500 µM. For the same molecule, the MIC ([10]; 72 h, read-out: MIC TI 72h) was 500 µM (≈ 138 µg/mL), the MIC ([10]; 120 h, read-out: MIC TI 120h) was over 500 µM and the MIC ([11]; 24 h, read-out: MIC EC 24h) was over 500 µM. It also gave an MIC ([11]; 48 h, read-out: MIC EC 48h) of over 500 µM, an MIC ([12]; 24 h, read-out: MIC CP 24h) of 500 µM (≈ 138 µg/mL) and an MIC ([12]; 48 h, read-out: MIC CP 48h) of 500 µM (≈ 138 µg/mL). The “MIC KP 24h” value [13] was over 500 µM, the “MIC KP 48h” value [13] was over 500 µM and the MIC ([14]; Calculated from MIC (μg/mL)) was 900 µM. For the same molecule, the MIC [14] was 250 µg/mL, the MIC [15, 22] was 500 µM (≈ 138 µg/mL) and the MIC [15, 23] was over 500 µM. The MIC ([16]; 24 h, read-out: MIC SA 24h) was over 500 µM, the MIC ([16]; 48 h, read-out: MIC SA 48h) was over 500 µM and the MIC [17, 24] was 500 µM (≈ 138 µg/mL). It also gave an MIC [17, 25] of over 500 µM, an MIC ([18]; 24 h, read-out: MIC CK 24h) of 500 µM (≈ 138 µg/mL) and an MIC ([18]; 48 h, read-out: MIC CK 48h) of 500 µM (≈ 138 µg/mL). For the same molecule, the MIC [19] was over 500 µg/mL.

With `O=C(Cc1ccccc1)Nc1ccc(Cl)cn1` [Compound 2] the MIC [1, 20] was over 500 µM, the MIC [1, 21] was over 500 µM and the MIC [2] was 500 µg/mL (≈ 2030 µM). The MIC ([3]; 24 h, read-out: MIC PA 24h) was over 500 µM, the MIC ([3]; 48 h, read-out: MIC PA 48h) was over 500 µM and the MIC ([4]; 24 h, read-out: MIC CT 24h) was over 500 µM. It also gave an MIC ([4]; 48 h, read-out: MIC CT 48h) of over 500 µM, an MIC ([5]; 24 h, read-out: MIC ACI 24h) of over 500 µM and an MIC ([5]; 48 h, read-out: MIC ACI 48h) of over 500 µM. It also gave an MIC ([6]; 24 h, read-out: MIC EF 24h) of over 500 µM, an MIC ([6]; 48 h, read-out: MIC EF 48h) of over 500 µM and an IC50 (HepG2 cell line) of over 100 µM. It also gave an MIC ([7]; 24 h, read-out: MIC SE 24h) of over 500 µM, an MIC ([7]; 48 h, read-out: MIC SE 48h) of over 500 µM and an MIC ([8]; 24 h, read-out: MIC CA 24h) of over 500 µM. For the same molecule, the MIC ([8]; 48 h, read-out: MIC CA 48h) was over 500 µM, the MIC ([9]; 24 h, read-out: MIC MRSA 24h) was over 500 µM and the MIC ([9]; 48 h, read-out: MIC MRSA 48h) was over 500 µM. The MIC ([10]; 72 h, read-out: MIC TI 72h) was over 500 µM, the MIC ([10]; 120 h, read-out: MIC TI 120h) was over 500 µM and the MIC ([11]; 24 h, read-out: MIC EC 24h) was over 500 µM. It also gave an MIC ([11]; 48 h, read-out: MIC EC 48h) of over 500 µM, an MIC ([12]; 24 h, read-out: MIC CP 24h) of over 500 µM and an MIC ([12]; 48 h, read-out: MIC CP 48h) of over 500 µM. For the same molecule, the “MIC KP 24h” value [13] was over 500 µM, the “MIC KP 48h” value [13] was over 500 µM and the MIC ([14]; Calculated from MIC (μg/mL)) was 63.3 µM. The MIC [14] was 15.6 µg/mL, the “SI (selectivity index)” value ([14]; SI = HepG2 IC50 (μM)/MIC MtbH37Ra (μM), calculated for compounds with MIC ≤ 31.25 μg/mL) was over 1.6 and the MIC [15, 22] was over 500 µM. The MIC [15, 23] was over 500 µM, the MIC ([16]; 24 h, read-out: MIC SA 24h) was over 500 µM and the MIC ([16]; 48 h, read-out: MIC SA 48h) was over 500 µM. The MIC [17, 24] was over 500 µM, the MIC [17, 25] was over 500 µM and the MIC ([18]; 24 h, read-out: MIC CK 24h) was over 500 µM. It also gave an MIC ([18]; 48 h, read-out: MIC CK 48h) of over 500 µM and an MIC [19] of 500 µg/mL (≈ 2030 µM).
